Laboratory results as given in patent US7553841B2, “Amino cyclobutylamide modulators of chemokine receptor activity” (Merck & Co., Inc., priority 2003, dated 2009).

The compounds below were run on chemokine receptor (assay: activity of separated cis/trans isomers (test not described)). Settings: cis versus trans isomer of the same example, separated by chromatography; values not given.

Row | Structure (SMILES) | relative activity of the separated isomers
1 | C[C@H]1CN(C2CC(CNC(=O)c3cc(C(F)(F)F)cc(C(F)(F)F)c3)(c3ccccc3)C2)CC[C@@]12C=Cc1ccccc12 (stereo partly drawn) [Example 43 cis isomer] | active isomer
2 | CC(O)[C@]1(C(=O)NCc2cncc(C(F)(F)F)c2)C[C@@H](N2CC[C@@]3(C=Cc4ccccc43)[C@@H](C)C2)C1 (mixture of isomers) [Example 122 cis isomer] | more active isomer
3 | CN(C1CCOCC1)C1CC(C(=O)NCc2cc(F)cc(C(F)(F)F)c2)(c2ccccc2)C1 (stereo not drawn) [Example 42 trans isomer] | active isomer
4 | CN(C1CCOCC1)C1CC(C(=O)NCc2cc(C(F)(F)F)cc(C(F)(F)F)c2)(c2ccccc2)C1 (stereo not drawn) [Example 41 cis isomer] | more active isomer
5 | C[C@H]1CN(C2CC(C)(C(=O)NCc3cc(C(F)(F)F)cc(C(F)(F)F)c3)C2)CC[C@@]12C=Cc1ccccc12 (stereo partly drawn) [Example 54 cis isomer] | more active isomer
6 | C[C@H]1CN(C2CC(C(=O)NCc3cc(C(F)(F)F)cc(C(F)(F)F)c3)C2)CC[C@@]12C=Cc1ccccc12 (stereo partly drawn) [Example 1 cis isomer] | more active isomer
